Where two headings read alike, the source gives them in different places.
Experiments:
GSNOR enzyme [1] = molecular target: T1, GSNOR enzyme (Homo sapiens, UniProt P11766); assay: GSNOR inhibition assay (rate of NADH consumption, 340 nm absorbance); format: biochemical; conditions: Table 2b; read-out: IC50 Micromolar
IL-6 = assay: LPS/cytokine assay (mouse inflammation assay), IL-6; format: in vivo, CD-1 male mice; conditions: for LPS/IL6 Lowest tested active: CD-1 male mice, IP or IV, cytokine typically 6 hrs after LPS
Procedure: Table 2b also includes additional biological data of compounds described herein. The LPS/cytokine Assay was carried out in CD-1 male mice. The assay measured the level of various cytokines, including IL-6, IL-17, and IL-23, after induction by bacterial liposaccharide (LPS). Compounds were dosed by IP or IV routes of administration at varying times before and after LPS and the cytokine concentrations were measured at varying times, typically 6 hrs, after LPS by standard methods using ELISA kits.
BIOLOGICAL TESTING: Compounds 10 and 17 from Table 1 were tested in a mouse inflammation assay. Briefly, CD-1 mice were dosed with compound, 12 hrs before injecting mice I.P. with the potent cytokine inducer, bacterial lipopolysaccharide (LPS). The mice were euthanized 6 hrs after the LPS was injected and their serum prepared by standard methods. The concentration of IL-6 in the serum of each experimental animal was measured using an IL-6 ELISA kit from Enzo. The compounds tested were active.
This LPS/cytokine assay was carried out in healthy mice and measured the level of cytokine IL-6, IL-17, and 23 induction by LPS. Compounds are dosed (either orally (“p.o.”) or intravenously (“i.v.”) at varying times before and after LPS, and the cytokines are measured at varying times after LPS. The effect of the tested compounds (Table 5) on IL-6 release is shown in FIG. 7. The effect of the tested compounds (Table 6) on IL-17 an IL-23 release is shown in FIG. 11 and FIG. 12, respectively.

GSNOR enzyme [2] = molecular target: T1, GSNOR enzyme; assay: GSNOR inhibition assay (rate of NADH consumption, 340 nm absorbance); format: biochemical
Procedure: The following compounds were also prepared based on the methods described herein, using the appropriate starting materials. Table 2a and Table 2b also provides the % GSNOR inhibition at 20 μM of compounds described herein. […] The buffer was 100 mM phosphate buffer (pH 7.4.) The rate of NADH consumption for each well was determined by ultraviolet spectroscopy. Plates were read on a Molecular Devices Spectra Max UV/Visible Spectrophotometer/plate reader and the change in 340 nm absorbance at 25° C. was recorded for each well at 10 sec intervals over the duration of the recording period (2˜5 minutes). The rate was measured from the linear portion of the curve. Final test compound concentration was 20 μM. The mean % inhibition from 3 test compound wells and 5 control wells was measured as the percentage of the mean no compound+enzyme−the mean no enzyme, no compound control.

[3] = Table 2b, test compound 20 uM, read-out: % GSNOR Inhibition at 20 uM
[4] = Table 2a, test compound 20 μM, pH 7.4, 25° C., read-out: % Inhibit. at 20 μM

T1 sequence (P11766 whole entry): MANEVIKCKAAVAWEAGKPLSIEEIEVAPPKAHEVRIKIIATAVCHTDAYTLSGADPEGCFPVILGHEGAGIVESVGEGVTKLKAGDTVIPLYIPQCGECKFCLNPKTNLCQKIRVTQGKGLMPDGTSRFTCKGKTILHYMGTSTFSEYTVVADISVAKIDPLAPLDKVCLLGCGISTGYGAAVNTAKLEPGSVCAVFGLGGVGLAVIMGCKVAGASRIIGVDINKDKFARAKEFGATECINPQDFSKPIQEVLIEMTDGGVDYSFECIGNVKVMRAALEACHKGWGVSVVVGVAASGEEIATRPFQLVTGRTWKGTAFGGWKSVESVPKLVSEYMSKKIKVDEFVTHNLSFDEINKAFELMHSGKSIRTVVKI

Row | SMILES | IC50 (GSNOR enzyme [1]) | LPS/IL6 Lowest tested active (IL-6) | inhibition at 20 µM (GSNOR enzyme [2]; [3]) | IL-6 in serum after LPS (mouse inflammation assay) (IL-6; dosed 12 hrs before LPS I.P., serum 6 hrs after LPS) | inhibition at 20 µM (GSNOR enzyme [2]; [4])
1 | NC(=O)c1ccc(-n2c3ccc(-n4ccnc4)cc3c3ccc(CCC(=O)O)cc32)cc1 [Compound 20] | 1000 to 5000 nM | 0.3 mg/kg | 88.9% |  | 
2 | Cc1cc(C#N)ccc1-n1c2ccc(-n3ccnc3)cc2c2ccc(CCC(=O)O)cc21 [Compound 19] | 1000 to 5000 nM |  | 81.3% |  | 
3 | N#CCCn1c2ccc(-n3ccnc3)cc2c2ccc(CCC(=O)O)cc21 [Compound 26, 3-(imidazol-1(H)-yl)-7-(2-carboxylethyl)-9(H)-(2-cyanoethyl) carbazole] | < 1000 nM | 0.3 mg/kg | 92.4% |  | 
4 | NC(=O)CCn1c2ccc(-n3ccnc3)cc2c2ccc(C(=O)O)cc21 [Compound 10, 9-(3-amino-3-oxopropyl)-6-(1H-imidazo-1-yl)-9H-carbazole-2-carboxylic acid] | < 1000 nM | 30 mg/kg | 75% | active | 85%
5 | NC(=O)c1ccc(-n2c3cc(Cn4ccnc4)ccc3c3ccc(C(=O)O)cc32)c([N+](=O)[O-])c1 [Compound 16, 9-(4-aminocarbonyl-2-nitrophenyl)-7-[(1H-imidazol-1-yl)methyl]-9H-carbazole-2-carboxylic acid] | 1000 to 5000 nM |  | 89% |  | 89%
6 | O=C(O)CCc1ccc2c3cc(-n4ccnc4)ccc3n(-c3ccc(O)cc3)c2c1 [Compound 23] |  |  | 93.4% |  | 
7 | N#CCCCCn1c2ccc(-n3ccnc3)cc2c2ccc(CCC(=O)O)cc21 [Compound 31] | < 1000 nM | 0.3 mg/kg | 92.9% |  | 
8 | NC(=O)c1ccc(-n2c3cc(CNc4ncco4)ccc3c3ccc(C(=O)O)cc32)c([N+](=O)[O-])c1 [Compound I1, 9-(4-carbamoyl-2-nitrophenyl)-7-((oxazol-2-ylamino)methyl)-9H-carbazole-2-carboxylic acid] |  |  |  |  | 0%
9 | COc1ccc(-n2c3ccc(-n4ccnc4)cc3c3ccc(CCC(=O)O)cc32)c(C)c1 [Compound 25] |  |  | 92% |  | 
